Tests used:
[1] = target: T1, PI3K-delta (Homo sapiens, UniProt O00329); assay: HTRF PI3K biochemical assay, delta isoform; conditions: form screened (neutral or TFA salt) given, read-out: PI3Kdelta IC50
T1 construct: purchased Upstate; Millipore 14-604
Description: HTRF PI3K Biochemical Assay to Measure Intrinsic Potency of Compound Inhibitors
This assay was developed and further optimized from a kit produced by Upstate (Millipore catalog #33-047) and has been configured for HTS and SAR screening. Briefly, this procedure exploits the exquisite specificity and high affinity binding of enzyme reaction substrate phosphatidyl(3,4,5)triphosphate (PIP3) to the GRP1 pleckstrin homology (PH) domain to generate the signal. In the absence of PIP3, an HTRF (Homogeneous Time-Resolved Fluorescence energy transfer) complex is formed consisting of europium (Eu)-labeled anti-GST, GSTtagged GRP1-PH domain, biotin-PIP3 and streptavidin conjugated APC. The native PIP3 produced by PI3-Kinase activity disrupts in a competitive manner the biotin-PIP3 from the PH domain, resulting in the loss of energy transfer (HTRF complex) and a decrease in the signal. The format of this assay is the same for all 4 isoforms of PI3K; the differences lie in the concentration of enzyme used to achieve robust assay window. The alpha, beta, and delta assays are run at 0.5, 1, and 0.3 nM enzymes and the gamma assay is run at 5 nM enzyme. The ATP concentration is 100 uM in the alpha, beta, and delta assays and 50 uM ATP in the gamma assay. All reactions are run at 5 uM PIP2.
Compounds are serially diluted (3-fold in 100% DMSO) across a 384-well polypropylene source plated from column 3 to column 12 and column 13 to column 22, to yield 10 concentration dose response for each test compound. Columns 1, 2, 23 and 24 contain either only DMSO or pharmacological known control inhibitor.
The PI3-Kinase biochemical assay was optimized using the HTRF kit provided by Upstate (Millipore). The assay kit contains six reagents: 1) 4× Reaction Buffer; 2) native PIP2 (substrate); 3) Stop (EDTA); 4) Detection Mix A (Streptavidin-APC); 5) Detection Mix B (Eu-labeled Anti-GST plus GST-tagged PH-domain); 6) Detection Mix C.
PI3Kinase Reaction Buffer is prepared by dilution the stock 1:4 with de-ionized water. […] Enzyme addition and compound pre-incubation are initiated by the addition of 1.25 ul of PI3K (at twice its final concentration) in the 1× reaction buffer to all wells using a BioRaptor. Plates are incubated at room temperature for 15 minutes. Reactions are initiated by addition of 1.25 ul of 2× substrate solution (PIP2 and ATP in 1× reaction buffer) using BioRaptor. Plates are incubated in humidified chamber at room temperature for one hour. Reactions are quenched by addition of 0.625 uL of stop solution to all wells using the BioRaptor. The quenched reactions are then processed to detect product formation by adding 0.625 uL of Detection Solution to all wells using the BioRaptor (Detection mix C, Detection Mix A, and Detection Mix B combined together in an 18:1:1 ratio prepared 2 hours prior to use).
The loss of the HTRF signal is due to the displacement of biotinylated-PIP3 from the PH domain by the PI3K-dependent conversion of PIP2 to PIP3. This loss of signal is nonlinear with respect to both increasing product and time. This non-linear detection will impact accuracy of IC50 calculations; therefore, there is a need for a correction factor to obtain more accurate IC50 values. This correction is derived from a PIP3 standard curve run in a separate assay plate. All data were calculated using the ratio of acceptor (APC) to donor (Europium) fluorescence in each well of the assay plate. […] An IC50 was then calculated fitting the % inhibition data to the equation: % inhibition=min+(Max−min)/1+([inhibitor]/IC50)^n) where min is the % inhibition with inhibitor, max is the signal in DMSO control, and n is the Hill slope.

[2] = target: T2, PI3K-alpha (Homo sapiens, UniProt P42336); assay: HTRF PI3K biochemical assay, alpha isoform; conditions: ratio PI3K-alpha IC50 value / PI3K-delta IC50 value
T2 construct: purchased Upstate; Millipore 14-602
T2 sequence (P42336 whole entry, canonical isoform): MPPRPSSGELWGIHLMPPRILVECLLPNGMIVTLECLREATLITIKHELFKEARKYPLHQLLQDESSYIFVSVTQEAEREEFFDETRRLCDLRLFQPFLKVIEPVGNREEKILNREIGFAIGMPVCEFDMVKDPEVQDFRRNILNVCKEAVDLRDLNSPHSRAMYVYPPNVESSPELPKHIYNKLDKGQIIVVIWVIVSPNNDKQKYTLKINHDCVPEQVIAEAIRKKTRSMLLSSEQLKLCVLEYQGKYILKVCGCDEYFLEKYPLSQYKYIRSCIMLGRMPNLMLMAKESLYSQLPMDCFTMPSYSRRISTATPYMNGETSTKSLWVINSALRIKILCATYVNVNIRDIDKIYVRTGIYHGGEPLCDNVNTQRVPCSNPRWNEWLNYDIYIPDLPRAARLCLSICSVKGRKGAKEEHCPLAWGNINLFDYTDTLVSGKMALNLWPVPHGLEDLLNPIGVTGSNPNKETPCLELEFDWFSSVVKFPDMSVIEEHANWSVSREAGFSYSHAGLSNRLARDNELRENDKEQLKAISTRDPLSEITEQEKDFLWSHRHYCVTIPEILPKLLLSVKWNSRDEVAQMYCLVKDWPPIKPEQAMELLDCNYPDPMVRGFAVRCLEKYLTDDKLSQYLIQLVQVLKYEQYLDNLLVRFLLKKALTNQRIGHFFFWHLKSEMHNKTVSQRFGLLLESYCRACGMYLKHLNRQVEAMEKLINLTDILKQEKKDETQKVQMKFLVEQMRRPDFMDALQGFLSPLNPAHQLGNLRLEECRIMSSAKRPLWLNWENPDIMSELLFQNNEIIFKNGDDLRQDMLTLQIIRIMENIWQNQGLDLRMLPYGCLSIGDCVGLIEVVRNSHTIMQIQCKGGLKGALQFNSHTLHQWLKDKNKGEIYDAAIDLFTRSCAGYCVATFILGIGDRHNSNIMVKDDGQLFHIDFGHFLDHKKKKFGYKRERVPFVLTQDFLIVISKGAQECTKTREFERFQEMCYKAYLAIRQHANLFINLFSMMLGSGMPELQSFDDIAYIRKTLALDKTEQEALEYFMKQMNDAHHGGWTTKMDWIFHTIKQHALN
T2 sequence (P27986 whole entry partner, canonical isoform): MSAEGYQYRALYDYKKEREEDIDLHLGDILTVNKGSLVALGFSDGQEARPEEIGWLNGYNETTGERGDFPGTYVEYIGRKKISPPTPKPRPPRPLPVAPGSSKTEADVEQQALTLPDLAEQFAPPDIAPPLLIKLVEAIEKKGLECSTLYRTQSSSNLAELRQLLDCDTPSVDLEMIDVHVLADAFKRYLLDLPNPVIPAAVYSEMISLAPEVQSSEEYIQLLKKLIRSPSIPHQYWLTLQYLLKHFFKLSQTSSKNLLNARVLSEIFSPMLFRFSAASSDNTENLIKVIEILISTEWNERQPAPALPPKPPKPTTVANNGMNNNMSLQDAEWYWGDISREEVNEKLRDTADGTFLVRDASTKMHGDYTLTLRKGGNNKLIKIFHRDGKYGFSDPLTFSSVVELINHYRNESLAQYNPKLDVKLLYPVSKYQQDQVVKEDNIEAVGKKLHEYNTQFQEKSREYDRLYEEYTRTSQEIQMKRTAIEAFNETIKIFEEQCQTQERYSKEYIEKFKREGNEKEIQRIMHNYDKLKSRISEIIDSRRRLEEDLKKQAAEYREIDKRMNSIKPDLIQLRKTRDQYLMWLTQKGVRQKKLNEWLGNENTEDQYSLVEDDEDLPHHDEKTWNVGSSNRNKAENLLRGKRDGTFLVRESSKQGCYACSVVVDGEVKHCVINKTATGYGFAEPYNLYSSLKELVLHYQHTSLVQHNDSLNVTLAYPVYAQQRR

T1 sequence (O00329 whole entry, canonical isoform): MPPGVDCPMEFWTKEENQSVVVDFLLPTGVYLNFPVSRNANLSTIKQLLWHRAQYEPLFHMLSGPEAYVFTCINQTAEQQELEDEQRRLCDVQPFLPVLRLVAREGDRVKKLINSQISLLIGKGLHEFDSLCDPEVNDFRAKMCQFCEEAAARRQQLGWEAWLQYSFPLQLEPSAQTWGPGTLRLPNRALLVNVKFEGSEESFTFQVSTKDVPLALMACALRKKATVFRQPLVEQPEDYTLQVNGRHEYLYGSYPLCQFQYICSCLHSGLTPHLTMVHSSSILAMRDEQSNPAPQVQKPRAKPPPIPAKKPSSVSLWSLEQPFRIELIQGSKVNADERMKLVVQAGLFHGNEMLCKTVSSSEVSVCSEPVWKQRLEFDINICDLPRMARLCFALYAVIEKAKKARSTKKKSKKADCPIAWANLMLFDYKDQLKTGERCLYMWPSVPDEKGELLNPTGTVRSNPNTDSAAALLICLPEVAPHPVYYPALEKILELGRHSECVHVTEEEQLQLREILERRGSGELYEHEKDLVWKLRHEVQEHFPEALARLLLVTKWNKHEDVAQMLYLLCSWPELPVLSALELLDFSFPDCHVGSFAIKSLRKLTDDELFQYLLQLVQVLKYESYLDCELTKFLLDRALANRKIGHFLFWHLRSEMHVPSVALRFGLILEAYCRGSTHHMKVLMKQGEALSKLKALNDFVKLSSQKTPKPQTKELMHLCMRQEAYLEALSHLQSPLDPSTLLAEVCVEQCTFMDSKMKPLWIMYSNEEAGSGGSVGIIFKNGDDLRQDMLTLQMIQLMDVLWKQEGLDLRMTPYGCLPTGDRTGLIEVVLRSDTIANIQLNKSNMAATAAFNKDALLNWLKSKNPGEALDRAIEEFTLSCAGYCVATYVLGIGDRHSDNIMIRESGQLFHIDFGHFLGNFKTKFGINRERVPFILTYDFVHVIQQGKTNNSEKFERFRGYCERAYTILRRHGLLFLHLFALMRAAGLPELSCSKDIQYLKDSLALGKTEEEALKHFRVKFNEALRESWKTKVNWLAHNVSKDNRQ
T1 sequence (P27986 whole entry partner, canonical isoform): as the sequence (P27986 whole entry partner, canonical isoform) above

Row | SMILES | IC50 [1] [nM] | Selectivity versus PI3Kalpha [2]
1 | CCC(=O)N1CC[C@H](Nc2ncnc3c2nc(-c2ccc(OC)nc2)n3C)C1 [Compound 3-31, 8-(6-methoxypyridin-3-yl)-9-methyl-N-[(3S)-1-propanoylpyrrolidin-3-yl]-9H-purin-6-amine] | 4 | >10
2 | CCn1c(C(=O)N(C)CC(F)(F)F)nc2c(N[C@H]3CCN(C(=O)C4CC4)C3)ncnc21 [Compound 6-15, 6-{[(3S)-1-(cyclopropylcarbonyl)pyrrolidin-3-yl]amino}-9-ethyl-N-methyl-N-(2,2,2-trifluoroethyl)-9H-purine-8-carboxamide] | 230 | >10
3 | CCC(=O)N1CC[C@H](Nc2ncnc3c2nc(-c2ccc4cn[nH]c4c2)n3C)C1 [Compound 3-6, (S)-1-(3-((8-(1H-indazol-6-yl)-9-methyl-9H-purin-6-yl)amino)pyrrolidin-1-yl)propan-1-one] | 1.6 | >10
4 | CCn1c(-c2cnc(C)nc2)nc2c(N[C@H]3CC[C@H](C(=O)N(C)C4CC4)C3)ncnc21 [Compound 5-1, (1S,3S)-N-cyclopropyl-3-{[9-ethyl-8-(2-methylpyrimidin-5-yl)-9H-purin-6-yl]amino}-N-methylcyclopentanecarboxamide] | 13 | >10
5 | Cc1ncc(-c2nc3c(N[C@H]4CCN(C(=O)C5CC5)C4)ncnc3n2C)cn1 [Compound 3-23, N-[(3S)-1-(cyclopropylcarbonyl)pyrrolidin-3-yl]-9-methyl-8-(2-methylpyrimidin-5-yl)-9H-purin-6-amine] | 5.4 | >10
6 | CCn1c(-c2cnc(C)nc2)nc2c(NC3CN(C(=O)OC(C)(C)C)CC3O)ncnc21 (racemic) [Compound 1-15, ((3R,4R) and (3S,4S))-tert-butyl 3-{[9-ethyl-8-(2-methylpyrimidin-5-yl)-9H-purin-6-yl]amino}-4-hydroxypyrrolidine-1-carboxylate] | 10 | >10
7 | CCn1c(-c2ccc(C(F)(F)F)nc2)nc2c(N[C@H]3CCN(C(=O)[C@@H]4CC4(C)C)C3)ncnc21 [Compound 2-51, N-[(3S)-1-{[(1R)-2,2-dimethylcyclopropyl]carbonyl}pyrrolidin-3-yl]-9-ethyl-8-[6-(trifluoromethyl)pyridin-3-yl]-9H-purin-6-amine] | < 1 | >10
8 | CCn1c(-c2cnc(C)nc2)nc2c(N[C@H]3CCN(C(=O)CC(C)(C)O)C3)ncnc21 [Compound 2-30, 4-[(3S)-3-{[9-ethyl-8-(2-methylpyrimidin-5-yl)-9H-purin-6-yl]amino}pyrrolidin-1-yl]-2-methyl-4-oxobutan-2-ol] | 15 | >10
9 | CCC(=O)N1CC[C@@H](Nc2ncnc3c2nc(-c2cnn(CC)c2C)n3C)C1 [Compound 2-1, 8-(1-ethyl-5-methyl-1H-pyrazol-4-yl)-9-methyl-N-[(3R)-1-propanoylpyrrolidin-3-yl]-9H-purin-6-amine] | 32 | >10
10 | CCn1ncc(-c2nc3c(N[C@H]4CCCN(C(=O)C5CCOCC5)C4)ncnc3n2C)c1C [Compound 2-29, 8-(1-ethyl-5-methyl-1H-pyrazol-4-yl)-9-methyl-N-[(3S)-1-(tetrahydro-2H-pyran-4-ylcarbonyl)piperidin-3-yl]-9H-purin-6-amine] | 11 | >10
11 | CCC(=O)N1CC[C@H](Nc2ncnc3c2nc(-c2cnn(CC)c2C)n3CC)C1 [Compound 2-15, (S)-1-(3-((9-ethyl-8-(1-ethyl-5-methyl-1H-pyrazol-4-yl)-9H-purin-6-yl)amino)pyrrolidin-1-yl)propan-1-one] | < 1 | >10
12 | CCn1c(-c2cnc(C)nc2)nc2c(N[C@H]3CCN(C(=O)C4CC4)[C@@H]3C)ncnc21 [Compound 2-94, N-[(2R,3S)-1-(cyclopropylcarbonyl)-2-methylpyrrolidin-3-yl]-9-ethyl-8-(2-methylpyrimidin-5-yl)-9H-purin-6-amine] | < 1 | >10
13 | CCC(=O)N1CC[C@H](Nc2ncnc3c2nc(-c2cnn(CC)c2C)n3C2CC2)C1 [Compound 2-16, (S)-1-(3-((9-cyclopropyl-8-(1-ethyl-5-methyl-1H-pyrazol-4-yl)-9H-purin-6-yl)amino)pyrrolidin-1-yl)propan-1-one] | 53 | >10
14 | CCn1c(C(=O)NCC(F)(F)F)nc2c(N[C@H]3CCN(c4ccccn4)C3)ncnc21 [Compound 6-10, 9-ethyl-6-{[(3S)-1-pyridin-2-ylpyrrolidin-3-yl]amino}-N-(2,2,2-trifluoroethyl)-9H-purine-8-carboxamide] | 16 | >10
15 | CCn1c(-c2cnc(C)nc2)nc2c(N[C@H]3CCN(C(=O)[C@H]4C[C@H]4C)C3)ncnc21 [Compound 2-91, 9-ethyl-N-[(3S)-1-{[(1S,2R)-2-methylcyclopropyl]carbonyl}pyrrolidin-3-yl]-8-(2-methylpyrimidin-5-yl)-9H-purin-6-amine] | 12 | >10
16 | CCn1c(C(=O)NC(C)(C)C)nc2c(N[C@H]3CCN(C(=O)C4CC4)C3)ncnc21 [Compound 6-16, N-tert-butyl-6-{[(3S)-1-(cyclopropylcarbonyl)pyrrolidin-3-yl]amino}-9-ethyl-9H-purine-8-carboxamide] | 20 | >10
17 | CCn1c(-c2cnc(OC)c(C)c2)nc2c(N[C@H]3CCN(C(=O)C4CC(F)(F)C4)C3)ncnc21 [Compound 3A-5, N-{(3S)-1-[(3,3-difluorocyclobutyl)carbonyl]pyrrolidin-3-yl}-9-ethyl-8-(6-methoxy-5-methylpyridin-3-yl)-9H-purin-6-amine] | < 1 | >10
18 | CCn1c(-c2cnc(C)nc2)nc2c(N[C@H]3CCN(C(=O)C4CCCO4)C3)ncnc21 (single isomer, unassigned) [Compound 2-33, 9-ethyl-8-(2-methylpyrimidin-5-yl)-N-[(3S)-1-((R or S)-tetrahydrofuran-2-ylcarbonyl)pyrrolidin-3-yl]-9H-purin-6-amine] |  | >10
19 | CCn1ncc(-c2nc3c(N[C@@H]4CCN(C(=O)c5nc(C)oc5C)C4)ncnc3n2C)c1C [Compound 2-2, N-{(3R)-1-[(2,5-dimethyl-1,3-oxazol-4-yl)carbonyl]pyrrolidin-3-yl}-8-(1-ethyl-5-methyl-1H-pyrazol-4-yl)-9-methyl-9H-purin-6-amine] | 52 | 
20 | CCn1c(-c2ccc(C(F)(F)F)nc2)nc2c(N[C@H]3CCN(C(=O)C4CCOC4)C3)ncnc21 (single isomer, unassigned) [Compound 2-102, 9-ethyl-N-{(3S)-1-[(3S or 3R)-tetrahydrofuran-3-ylcarbonyl]pyrrolidin-3-yl}-8-[6-(trifluoromethyl)pyridin-3-yl]-9H-purin-6-amine] |  | >10

Other lines, results leading:

Row | IC50 [1] [nM] | Selectivity versus PI3Kalpha [2] | SMILES
21 | 110 | >10 | CCn1c(CCCO)nc2c(N[C@H]3CCN(C(=O)C4CC4)C3)ncnc21 [Compound 7-6, 3-(6-{[(3S)-1-(cyclopropylcarbonyl)pyrrolidin-3-yl]amino}-9-ethyl-9H-purin-8-yl)propan-1-ol]
22 | < 1 | >10 | CCn1c(-c2cnc(C)nc2)nc2c(N[C@H]3CCN(C(=O)N4CCC(C)(C)C4)C3)ncnc21 [Compound 12-11, N-{(3S)-1-[(3,3-dimethylpyrrolidin-1-yl)carbonyl]pyrrolidin-3-yl}-9-ethyl-8-(2-methylpyrimidin-5-yl)-9H-purin-6-amine]
23 | 140 | >10 | CCC(=O)N1CC[C@H](Nc2ncnc3c2nc(CC(C)C)n3C)C1 [Compound 7-3, 9-methyl-8-(2-methylpropyl)-N-[(3S)-1-propanoylpyrrolidin-3-yl]-9H-purin-6-amine]
24 | 770 | >10 | CCn1c(CC(F)(F)F)nc2c(N[C@H]3CCN(C(=O)C4CC4)C3)ncnc21 [Compound 7-7, N-[(3S)-1-(cyclopropylcarbonyl)pyrrolidin-3-yl]-9-ethyl-8-(2,2,2-trifluoroethyl)-9H-purin-6-amine]
25 | 580 | >10 | Cc1ncc(-c2nc3c(N[C@H]4CCN(C(=O)C5CC5)C4)ncnc3n2CC(F)(F)F)cn1 [Compound 9-5, N-[(3S)-1-(cyclopropylcarbonyl)pyrrolidin-3-yl]-8-(2-methylpyrimidin-5-yl)-9-(2,2,2-trifluoroethyl)-9H-purin-6-amine]
26 | 510 | >10 | CCn1c(N2CC[C@@H](O)C2)nc2c(N[C@H]3CCN(C(=O)C4CC4)C3)ncnc21 [Compound 8-1, (3R)-1-(6-{[(3S)-1-(cyclopropylcarbonyl)pyrrolidin-3-yl]amino}-9-ethyl-9H-purin-8-yl)pyrrolidin-3-ol]
27 | 14 | >10 | CCC(=O)N1CC[C@H](Nc2ncnc3c2nc(C(F)(F)F)n3CC)C1 [Compound 7-11, 9-ethyl-N-[(3S)-1-propanoylpyrrolidin-3-yl]-8-(trifluoromethyl)-9H-purin-6-amine]
28 | 67 | >10 | CCC(=O)N1CC[C@H](Nc2ncnc3c2nc(-c2cnn(CC)c2C)n3CC2CC2)C1 [Compound 9-3, 9-(cyclopropylmethyl)-8-(1-ethyl-5-methyl-1H-pyrazol-4-yl)-N-[(3S)-1-propanoylpyrrolidin-3-yl]-9H-purin-6-amine]
29 | 3.5 | >10 | CCCCNC(=O)N1CC[C@H](Nc2ncnc3c2nc(-c2cnc(C)nc2)n3CC)C1 [Compound 12-23, (3S)-N-butyl-3-{[9-ethyl-8-(2-methylpyrimidin-5-yl)-9H-purin-6-yl]amino}pyrrolidine-1-carboxamide]
